pIC50, pKi: −log10 of the molar value. Read-outs that look alike come from different tables or passages of the source.
Key:
human capsaicin receptor [1] = biological target: T1, human capsaicin receptor (Homo sapiens, UniProt Q8NER1); assay: Capsaicin receptor binding assay ([3H]RTX competition)
T1 construct: expression consrtuct encoding the full length human capsaicin receptor; expressed in transfected cells
From the text: Capsaicin Receptor Binding Assay
The following assay is a standard assay of capsaicin receptor binding that may be used to determine the binding affinity of compounds for the capsaicin (VR1) receptor.
Materials. [^3H]Resiniferatoxin (RTX; 37 Ci/mmol) was synthesized by and obtained from the Chemical Synthesis and Analysis Laboratory, National Cancer Institute-Frederick Cancer Research and Development Center, Frederick, MD. [^3H] […] Nonradioactive RTX may be purchased from Alexis Corp. (San Diego, Calif.) and capsazepine from RBI (Natick, Mass).
Cell Culture. […] These transfected cells are selected for two weeks in media containing G418 (400 ug/ml) and then maintained as a pool of stably transfected cells.
pUHG102 VR1 expression plasmids are transfected into Chinese Hamster Ovary (CHO) cells containing the pTet Off Regulator plasmid (Clontech). In these cells, expression of the pUHG plasmid is repressed in the presence of tetracycline but is induced upon removal of the antibiotic. Stable clones are isolated in culture medium containing puromycin (10 ug/ml) and maintained in medium supplemented with tetracycline (1 ug/ml) Cells utilized for assays are grown in culture medium without antibiotic for 48-72 hours prior to use. For radioligand binding experiments, cells are seeded in T175 cell culture flasks in media without antibiotics and grown to approximately 90% confluency. The flasks are then washed with PBS and harvested in PBS containing 5 mM EDTA. The cells are pelleted by gentle centrifugation and stored at −80° C. until assayed.
Previously frozen cells are disrupted with the aid of a tissue homogenizer in ice-cold HEPES homogenization buffer (5mM KCl 5, 5.8mM NaCl, 0.75mM CaCl2, 2mM MgCl2, 320 mM sucrose, and 10 mM HEPES pH 7.4). Tissue homogenates are first centrifuged for 10 min at 1000×g (4° C.) to remove the nuclear fraction and debris and then the supernatant from the first centrifugation is further centrifuged for 30 min at 35,000×g (4° C.) to obtain a partially purified membrane fraction. Membranes are resuspended in the HEPES homogenization buffer prior to being assayed. An aliquot of this membrane homogenate is used to determine protein concentration via the Bradford method (BIO-RAD Protein Assay Ki t, #500-0001, BIO-RAD, Hercules, Calif.).
Binding assay mixtures were set up on ice and contained [^3H]RTX (specific activity 2200 mCi/ml), 2 ul non-radioactive ligands test compound, 0.25 mg/ml bovine serum albumin (Cohn fraction V), and 5×10^4−1×10^5 VR1-transfected cells. The final volume was adjusted to 500 ul (competition binding assays) or 1,000 ul (saturation binding assays) with the ice-cold HEPES homogenization buffer solution (pH 7.4) described above. Non-specific binding was defined as that occurring in the presence of 1 uM non-radioactive RTX. For saturation binding, [^3H]RTX was added in the concentration range of 7 - 1,000 pM, using 1 to 2 dilutions. Typically 11 concentration points are collected per saturation binding curve.
Competition binding assays were performed in the presence of 60 pM [^3H]RTX and various concentrations of competing ligands. The binding reactions are initiated by transferring the assay mixtures into a 37° C. water bath and are terminated following a 60 min incubation period by cooling the tubes on ice. Membrane-bound RTX is separated from free, as well as any alpha1-acid glycoprotein-bound RTX, by filtration onto WALLAC glass fiber filters (PERKIN-ELMER, Gaithersburg, Md.) which are pre-soaked with 1.0% PEI (polyethyleneimine) for 2 hours prior to use.

human capsaicin receptor [2] = biological target: T1, human capsaicin receptor; assay: Antagonist assay for Capsaicin receptor mediated calcium mobilization; type: cell-based; details: Table VI, read-out: EC50 (the source's name)
In short: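 Cells expressing human capsaicin receptor, loaded with Fluo-3 AM, were preincubated 0.5–6 h at room temperature in the dark with test compound at 1–5 μM final in KRH buffer (pH 7.4, 2 mM CaCl2, probenecid). Capsaicin at its EC50 was then added via FLIPR; IC50 is the antagonist concentration halving the calcium signal.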

[3] = Sedative effect noted in CFA arthritis model protocol; type: in vivo, rats; details: oral dose of 5mg/kg
Description: Male SD rats are injected with […] of CFA (0.1 mg heat killed and dried M. tuberculosis/ml) in the hind paw ([…] on the plantar surface of the paw) essentially as described by Bertorelli R, Corradini L, Rafiq K, Tupper J, Calo G, Ongini E., Br J Pharmacol. 1999 128(6):1252-8 and by Stein C, Millan M J, Herz A. Pharmacol Biochem Behav. 1988 31(2):455-51.
On day 7, animals are treated orally with a compound of the invention, morphine or vehicle (2% vitamin E-TPGS) 1 hour prior to testing.

T1 sequence (Q8NER1 whole entry): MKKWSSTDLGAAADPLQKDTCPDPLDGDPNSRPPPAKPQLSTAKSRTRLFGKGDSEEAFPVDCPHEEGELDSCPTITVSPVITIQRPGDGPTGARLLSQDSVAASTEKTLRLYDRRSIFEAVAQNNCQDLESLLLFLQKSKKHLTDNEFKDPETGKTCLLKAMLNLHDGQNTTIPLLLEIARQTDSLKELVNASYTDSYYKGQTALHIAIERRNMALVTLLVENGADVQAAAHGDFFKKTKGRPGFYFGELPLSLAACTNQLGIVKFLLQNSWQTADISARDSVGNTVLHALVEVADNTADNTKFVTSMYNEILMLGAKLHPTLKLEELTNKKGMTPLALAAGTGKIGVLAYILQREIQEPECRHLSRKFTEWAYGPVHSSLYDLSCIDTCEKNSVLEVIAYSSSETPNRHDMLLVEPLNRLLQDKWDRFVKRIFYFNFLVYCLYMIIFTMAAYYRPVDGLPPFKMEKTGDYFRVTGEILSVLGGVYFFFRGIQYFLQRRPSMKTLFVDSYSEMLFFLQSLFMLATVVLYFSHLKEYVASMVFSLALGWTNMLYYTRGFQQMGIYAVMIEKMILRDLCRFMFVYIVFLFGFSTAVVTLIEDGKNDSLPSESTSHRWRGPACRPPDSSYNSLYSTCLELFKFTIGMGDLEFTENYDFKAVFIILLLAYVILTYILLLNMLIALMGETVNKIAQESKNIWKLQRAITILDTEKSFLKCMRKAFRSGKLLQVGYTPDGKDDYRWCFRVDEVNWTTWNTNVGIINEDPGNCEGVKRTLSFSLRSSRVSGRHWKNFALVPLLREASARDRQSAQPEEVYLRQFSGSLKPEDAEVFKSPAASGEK

With “4-(3-Chloro-2-pyridinyl)-N-[4-(isopropyl)phenyl]-1-piperazinecarboxamide [Compound 14]” the pKi (human capsaicin receptor [1]; Table II, read-out: Activity) was greater than 5.40.
`CC(C)c1ccc(NC(=S)N2CCN(c3ncccc3Cl)C[C@H]2C)cc1` (stereo in doubt) [Example 7, 4-(3-Chloro-pyridin-2-yl)-2-methyl-piperazine-1-carbothioic acid (4-isopropyl-phenyl)-amide] gave a melting point of 49 to 51 °C.
For `COc1cc(CNC(=O)N2CCN(c3ncccc3C(F)(F)F)CC2)ccc1O` [Compound 1, 4-(3-Trifluoromethyl-2-pyridinyl)-N-(3-methoxy-4-hydroxyphenylmethyl)-1-piperazinecarboxamide], the pKi (human capsaicin receptor [1]; read-out: Capsaicin rececptor Ki) was 6.44.
`CCCCc1ccc(NC(=O)N2CCN(c3ncccc3[N+](=O)[O-])CC2)cc1` [Compound 2, 4-(3-Nitro-2-pyridinyl)-N-[4-(n-butyl)phenyl]-1-piperazinecarboxamide] showed a pKi (human capsaicin receptor [1]; Table II, read-out: Activity) greater than 5.40.
With `CCCCc1ccc(NC(=O)N2CCN(c3ncccc3C(F)(F)F)CC2)cc1` [Compound 3, 4-(3-Trifluoromethyl-2-pyridinyl)-N-[4-(n-butyl)phenyl]-1-piperazinecarboxamide] the pKi (human capsaicin receptor [1]; Table II, read-out: Activity) was greater than 5.40.
`Cc1cccnc1N1CCN(C(=O)Nc2ccc(C(C)C)cc2)CC1` [Compound 4, 4-(3-Methyl-2-pyridinyl)-N-[4-(isopropyl)phenyl]-1-Piperazinecarboxamide] gave a pKi (human capsaicin receptor [1]; Table II, read-out: Activity) greater than 5.40.
Compound `CC(C)c1ccc(NC(=O)N2CCN(c3ncc(C(F)(F)F)cc3Cl)CC2)cc1` [Compound 7, 4-(3-Chloro-5-trifluoromethyl-2-pyridinyl)-N-[4-(isopropyl)phenyl]-1-piperazinecarboxamide] has a pKi (human capsaicin receptor [1]; Table II, read-out: Activity) greater than 5.40.
`CC(C)c1ccc(NC(=O)N2CCN(c3ncccc3Cl)CC2)cc1` [Compound 8, 4-(3-Chloro-2-pyridinyl)-N-[4-(isopropyl)phenyl]-1-piperazinecarboxamide] showed a pKi (human capsaicin receptor [1]; Table II, read-out: Activity) greater than 5.40.
With `CC(C)c1ccc(NC(=O)N2CCN(c3ncc(Cl)cc3Cl)CC2)cc1` [Compound 9, 4-(3,5-Dichloro-2-pyridinyl)-N-[4-(isopropyl)phenyl]-1-piperazinecarboxamide] the pKi (human capsaicin receptor [1]; Table II, read-out: Activity) was greater than 5.40.
Work on `Cc1cccnc1C(=O)C=Cc1ccc(C(F)(F)F)cc1` [Compound 10, 1-(3-Methyl-2-pyridinyl)-3-(4-trifluoromethylphenyl)-prop-2-en-1-one] yielded a pKi (human capsaicin receptor [1]; Table II, read-out: Activity) greater than 5.40.
In the case of `CC(C)c1ccc(C=CC(=O)c2ncccc2C(F)(F)F)cc1` [Compound 11, 1-(3-Trifluoromethyl-2-pyridinyl)-3-(4-isopropylphenyl)-prop-2-en-1-one], the pKi (human capsaicin receptor [1]; Table II, read-out: Activity) was greater than 5.40.
Compound `CC(C)c1ccc(NC(=O)N2CCN(c3ncccc3C#N)CC2)cc1` [Compound 12, 4-(3-Cyano-2-pyridinyl)-N-[4-(isopropyl)phenyl]-1-piperazinecarboxamide] has a pKi (human capsaicin receptor [1]) greater than 5.40.
`C[C@@H]1CN(c2ncccc2Cl)CCN1C(=S)Nc1ccc(C(C)(C)C)cc1` [Compound 168] gave a pIC50 (human capsaicin receptor [2]) greater than 6.00.
`CC(C)c1ccc(NC(=S)N2CCN(c3ncccc3Cl)C[C@H]2C)cc1` [Compound 169] gave a pIC50 (human capsaicin receptor [2]) greater than 6.00.
Work on `CC(C)c1ccc(NC(=S)N2CCN(c3ncccc3Cl)C[C@@H]2C)cc1` [Compound 170] yielded a pIC50 (human capsaicin receptor [2]) greater than 6.00.
`C[C@H]1CN(c2ncccc2Cl)CCN1C(=S)Nc1ccc(C(C)(C)C)cc1` [Compound 171] showed a pIC50 (human capsaicin receptor [2]) greater than 6.00.
In the case of `C[C@@H]1CN(c2ncccc2Cl)CCN1C(=S)Nc1ccc(C(F)(F)F)cc1` [Compound 172], the pIC50 (human capsaicin receptor [2]) was greater than 6.00.
`C[C@@H]1CN(c2ncccc2Cl)CCN1C(=O)Oc1ccc(C(C)(C)C)cc1` [Compound 173] gave a pIC50 (human capsaicin receptor [2]) greater than 6.00.
With `CN1CC[C@]23c4c5ccc(O)c4O[C@H]2[C@@H](O)C=C[C@H]3[C@H]1C5` [morphine] the sedative effects [3] was “has sedative effects”.

Reference: patent US20020132853A1, “Capsaicin receptor ligands” (priority 2000, published 2002)
